One block for each molecule: values may come before it.
What was measured:
[1] = system: Dhcr7 / cholesterol biosynthesis in Neuro2a cells; experiment: Cellular sterol levels in Neuro2a cells after exposure; format: cell-based, Mouse; details: 100 nM; for cellular accumulation of 7-DHC, less than the accumulation caused by C10-BAC: 72 hours; for cellular desmosterol and cholesterol: 72 hour exposure, serum-free media, relative to Control
[2] = Metabolic stability of BACs in HLM; format: in vitro ADME, human; details: BAC 2 μM incubated separately, HLM 1 mg/mL, NADPH-dependent consumption
recombinant CYP2D6 = recombinant CYP2D6 (Homo sapiens, UniProt P10635); experiment: BAC consumption by human recombinant CYP2D6; format: in vitro ADME; details: 2 μM substrate, 50 nM P450, 30-minute incubation, NADPH
recombinant CYP3A4 = recombinant CYP3A4 (Homo sapiens, UniProt P08684); experiment: BAC consumption by human recombinant CYP3A4; format: in vitro ADME; details: 2 μM substrate, 50 nM P450, 30-minute incubation, NADPH
recombinant CYP4F12 = molecular target: T1, recombinant CYP4F12 (Homo sapiens, UniProt Q9HCS2); experiment: BAC consumption by human recombinant CYP4F12; format: in vitro ADME; details: for substrate consumed by recombinant CYP4F12: 50 nM P450, 30-minute incubation, NADPH
T1 sequence (Q9HCS2 1-524): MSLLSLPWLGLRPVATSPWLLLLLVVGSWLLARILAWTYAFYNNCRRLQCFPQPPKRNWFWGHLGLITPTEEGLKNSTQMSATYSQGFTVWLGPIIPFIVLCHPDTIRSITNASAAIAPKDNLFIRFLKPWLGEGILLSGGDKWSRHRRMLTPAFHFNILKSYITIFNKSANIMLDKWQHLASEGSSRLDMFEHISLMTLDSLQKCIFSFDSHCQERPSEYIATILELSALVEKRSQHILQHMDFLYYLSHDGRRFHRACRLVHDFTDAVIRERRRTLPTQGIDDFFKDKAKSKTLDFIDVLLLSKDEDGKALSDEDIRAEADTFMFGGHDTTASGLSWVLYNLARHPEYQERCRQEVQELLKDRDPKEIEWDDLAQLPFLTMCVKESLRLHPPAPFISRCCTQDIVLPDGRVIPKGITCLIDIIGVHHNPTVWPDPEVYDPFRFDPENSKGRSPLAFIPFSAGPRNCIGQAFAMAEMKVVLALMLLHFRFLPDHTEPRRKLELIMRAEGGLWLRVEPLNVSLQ

[3] = Kinetic characterization of C10-BAC hydroxylation in HLM; format: in vitro ADME, human; details: HLM 0.04 mg/mL, NADPH, 0.1 to 128 μM C10-BAC, initial rates
[4] = system: 3β-hydroxysterol-Δ^7-reductase (DHCR7); details: at nM concentrations; cited from earlier work
[5] = Time-courses of C10-BAC depletion and metabolite formation in HLM; details: HLM 0.2 mg/mL
recombinant CYP2A6 = molecular target: T2, recombinant CYP2A6 (Homo sapiens, UniProt P11509); experiment: BAC consumption by human recombinant CYP2A6; format: in vitro ADME; details: 2 μM substrate, 50 nM P450, 30-minute incubation, NADPH
T2 sequence (P11509 1-494): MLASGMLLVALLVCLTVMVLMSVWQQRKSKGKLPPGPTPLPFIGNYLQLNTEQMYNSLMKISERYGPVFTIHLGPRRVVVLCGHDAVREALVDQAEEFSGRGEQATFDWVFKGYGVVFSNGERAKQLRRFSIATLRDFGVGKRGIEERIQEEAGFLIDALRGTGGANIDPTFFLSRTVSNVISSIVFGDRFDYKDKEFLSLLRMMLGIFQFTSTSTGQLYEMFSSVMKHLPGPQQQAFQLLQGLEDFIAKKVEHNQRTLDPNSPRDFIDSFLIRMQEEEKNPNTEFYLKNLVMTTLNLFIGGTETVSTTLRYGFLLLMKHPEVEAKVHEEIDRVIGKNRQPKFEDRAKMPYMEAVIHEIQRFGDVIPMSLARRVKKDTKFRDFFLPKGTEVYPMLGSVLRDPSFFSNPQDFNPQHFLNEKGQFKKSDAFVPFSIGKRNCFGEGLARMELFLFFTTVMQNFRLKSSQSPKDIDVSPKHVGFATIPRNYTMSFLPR

recombinant CYP4F2 = molecular target: T3, recombinant CYP4F2 (Homo sapiens, UniProt P78329); experiment: BAC consumption by human recombinant CYP4F2; format: in vitro ADME; details: for effective inhibitor of recombinant CYP4F2 (C16-BAC consumption): inhibitor 1 μM, C16-BAC 2 μM, 50 nM P450, 20 minutes
T3 sequence (P78329 5-520): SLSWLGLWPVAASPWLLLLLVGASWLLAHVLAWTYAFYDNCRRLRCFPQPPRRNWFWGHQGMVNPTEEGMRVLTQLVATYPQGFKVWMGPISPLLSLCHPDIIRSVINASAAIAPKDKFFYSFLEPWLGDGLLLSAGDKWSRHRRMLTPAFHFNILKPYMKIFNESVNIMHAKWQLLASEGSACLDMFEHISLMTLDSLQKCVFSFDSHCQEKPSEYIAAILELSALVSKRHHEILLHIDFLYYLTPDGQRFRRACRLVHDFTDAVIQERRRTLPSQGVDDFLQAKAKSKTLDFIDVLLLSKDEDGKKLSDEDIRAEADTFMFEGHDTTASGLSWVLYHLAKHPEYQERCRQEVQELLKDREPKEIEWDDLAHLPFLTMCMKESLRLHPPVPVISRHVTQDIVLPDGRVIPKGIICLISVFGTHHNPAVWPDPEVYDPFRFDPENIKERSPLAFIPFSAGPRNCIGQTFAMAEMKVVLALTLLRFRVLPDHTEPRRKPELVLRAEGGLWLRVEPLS

Sequence of recombinant CYP2D6 (P10635 whole entry): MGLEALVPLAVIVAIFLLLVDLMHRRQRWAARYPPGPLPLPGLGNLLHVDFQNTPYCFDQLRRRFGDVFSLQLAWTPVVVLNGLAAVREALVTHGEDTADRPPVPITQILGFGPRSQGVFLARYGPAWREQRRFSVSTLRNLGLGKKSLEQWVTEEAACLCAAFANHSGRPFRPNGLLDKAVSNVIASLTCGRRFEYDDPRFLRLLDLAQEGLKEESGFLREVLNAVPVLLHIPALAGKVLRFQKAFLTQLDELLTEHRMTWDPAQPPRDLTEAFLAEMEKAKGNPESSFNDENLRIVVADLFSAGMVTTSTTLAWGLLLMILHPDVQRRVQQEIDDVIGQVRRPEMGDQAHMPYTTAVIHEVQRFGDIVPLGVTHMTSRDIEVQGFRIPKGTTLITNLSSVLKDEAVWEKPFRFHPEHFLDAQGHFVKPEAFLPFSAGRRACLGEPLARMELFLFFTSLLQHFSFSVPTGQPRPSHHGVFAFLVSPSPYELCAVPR
Sequence of recombinant CYP3A4 (P08684 whole entry): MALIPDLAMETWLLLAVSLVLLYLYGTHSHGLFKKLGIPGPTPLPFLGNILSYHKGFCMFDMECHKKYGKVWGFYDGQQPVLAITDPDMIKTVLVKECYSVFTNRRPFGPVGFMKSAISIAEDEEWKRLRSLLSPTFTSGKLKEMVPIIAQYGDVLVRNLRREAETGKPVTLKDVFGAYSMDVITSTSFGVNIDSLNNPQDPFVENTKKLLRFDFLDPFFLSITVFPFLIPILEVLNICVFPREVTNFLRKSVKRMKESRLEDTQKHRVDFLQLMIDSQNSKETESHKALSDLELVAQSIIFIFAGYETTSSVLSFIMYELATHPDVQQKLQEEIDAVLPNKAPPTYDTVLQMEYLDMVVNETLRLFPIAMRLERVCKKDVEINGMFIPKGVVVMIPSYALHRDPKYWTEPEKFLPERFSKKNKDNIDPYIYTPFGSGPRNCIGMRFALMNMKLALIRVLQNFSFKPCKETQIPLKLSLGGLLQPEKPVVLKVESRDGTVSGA

Compound: CC(O)CCCCCCCC[N+](C)(C)Cc1ccccc1.[Cl-] (stereo not shown) [(ω−1)-hydroxy-C10-BAC]
cellular accumulation of 7-DHC, less than the accumulation caused by C10-BAC [1]: over 2 orders of magnitude

Compound: Cl.Cl.Clc1ccccc1CNCC1CCC(CNCc2ccccc2Cl)CC1 (stereo not shown) [AY9944, reference compound]
cellular desmosterol and cholesterol [1]: significant decreased level

apparent half-life in HLM [2]: approximately 1 minutes | substrate consumed by recombinant CYP2D6 (recombinant CYP2D6): essentially all | substrate consumed by recombinant CYP3A4 (recombinant CYP3A4): 15% | substrate consumed by recombinant CYP4F12 (recombinant CYP4F12; 2 μM substrate): essentially all | Km ([3]; read-out: Km of (ω−1)-hydroxylation): 0.13 µM | C10-BAC concentration remaining at the 4-minute time point ([5]; 680 nM initial substrate, NADPH, no inhibitor): 341 ± 7 nM
Compound: CCCCCCCCCC[N+](C)(C)Cc1ccccc1.[Cl-] [C10-BAC]
Vmax of (ω−1)-hydroxylation [3]: 126 pmol/min/mg | Vmax of ω-hydroxylation [3]: 380 pmol/min/mg | cellular desmosterol and cholesterol [1]: significant decreased level | inhibition of DHCR7 in the cholesterol biosynthesis pathway [4]: inhibit

apparent half-life in HLM [2]: ~6 min
Compound: CCCCCCCCCCCCCC[N+](C)(C)Cc1ccccc1.[Cl-] [C14-BAC]

apparent half-life in HLM [2]: ~15 min | substrate consumed by recombinant CYP2D6 (recombinant CYP2D6): 77% | substrate consumed by recombinant CYP4F12 (recombinant CYP4F12; 2 μM substrate): 88% | C16-BAC percent remaining with recombinant CYP4F12, HET0016 alone (recombinant CYP4F12; 2 μM substrate, 50 nM P450, 20 minute incubation, HET0016 1 μM, mean ± SD, n = 3): 49% ± 6% | C16-BAC percent remaining with recombinant CYP4F12, no inhibitor (recombinant CYP4F12; 2 μM substrate, 50 nM P450, 20 minute incubation, no inhibitor, mean ± SD, n = 3): 26% ± 4% | substrate consumed by recombinant CYP2A6 (recombinant CYP2A6): 5% | substrate consumed by recombinant CYP4F2 (recombinant CYP4F2; 2 μM substrate, 50 nM P450, 30-minute incubation, NADPH): 45%
Compound: CCCCCCCCCCCCCCCC[N+](C)(C)Cc1ccccc1.[Cl-] [C16-BAC]

effective inhibitor of recombinant CYP4F2 (C16-BAC consumption) (recombinant CYP4F2): essentially complete inhibition | effect on (ω−1)-ketone formation from C10-BAC in HLM ([5]; inhibitor 1 μM, C10-BAC 680 nM): suppressing | effect on C10-BAC (ω−1)-hydroxylation / oxidation at the (ω−1)-position in HLM ([5]; inhibitor 1 μM, C10-BAC 680 nM): promoted | effect on C10-BAC ω-hydroxylation (ω-hydroxy metabolite formation) in HLM ([5]; inhibitor 1 μM, C10-BAC 680 nM): nearly complete inhibition | effect on ω-carboxylic acid formation from C10-BAC in HLM ([5]; inhibitor 1 μM, C10-BAC 680 nM): nearly complete inhibition
Compound: CCCCc1ccc(N=CNO)c(C)c1 [HET0016]

inhibition of C16-BAC consumption by recombinant CYP4F12 (recombinant CYP4F12; inhibitor 1 μM alone, C16-BAC 2 μM, 50 nM P450, 20 minutes): did not inhibit | effective inhibitor of recombinant CYP4F2 (C16-BAC consumption) (recombinant CYP4F2): not | effect on C10-BAC (ω−1)-hydroxylation / oxidation at the (ω−1)-position in HLM ([5]; inhibitor 1 μM, C10-BAC 680 nM): primarily inhibitory | effect on C10-BAC ω-hydroxylation (ω-hydroxy metabolite formation) in HLM ([5]; inhibitor 1 μM, C10-BAC 680 nM): did not inhibit | effect on ω-carboxylic acid formation from C10-BAC in HLM ([5]; inhibitor 1 μM, C10-BAC 680 nM): partial suppression
Compound: C=C[C@H]1C[N@@]2CC[C@H]1C[C@@H]2[C@@H](O)c1ccnc2ccc(OC)cc12 [quinidine]

Compound: C[N+](C)(CCCCCCCCCCO)Cc1ccccc1.[Cl-] [ω-hydroxy-C10-BAC]
cellular accumulation of 7-DHC, less than the accumulation caused by C10-BAC [1]: over 2 orders of magnitude

Source: paper PMC7269367 (Chemical research in toxicology, 2019)
